Test results reported in PubChem BioAssay AID1963423 (Molecular Pharmacology Branch, DTP, NCI, 2024).
Where “and” joins values, the source holds several entries; their conditions need not be identical. Identical values can stand only once.

Tested on: 439559-082-T-J2-PDC complex spheroid growth
Experiment: Anticancer human tumor 439559-082-T-J2-PDC patient-derived colon adenocarcinoma cell line growth inhibition [Asc]
Details: for viability, T/C: stronger effect = lower value
Method in brief: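 Complex spheroids combining tumor cells with HUVEC endothelial cells and human MSCs, at 37 degrees C, 5% CO2; agents tested alone or combined, half-log dilutions from at or near clinical Cmax, or 10 microM if Cmax unknown.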

[1] = curve of first compound, second compound 0.1 µM
[2] = curve of first compound, second compound 0.316 µM
[3] = curve of first compound, second compound 1 µM
[4] = curve of first compound, second compound 3.16 µM
[5] = curve of first compound, second compound 10 µM
[6] = second compound 0.1 µM, first compound 0.000316 µM
[7] = second compound 0.1 µM, first compound 0.001 µM
[8] = second compound 0.1 µM, first compound 0.00316 µM
[9] = second compound 0.1 µM, first compound 0.01 µM
[10] = second compound 0.1 µM, first compound 0.0316 µM
[11] = second compound 0.1 µM, first compound 0.1 µM
[12] = second compound 0.316 µM, first compound 0.000316 µM
[13] = second compound 0.316 µM, first compound 0.001 µM
[14] = second compound 0.316 µM, first compound 0.00316 µM
[15] = second compound 0.316 µM, first compound 0.01 µM
[16] = second compound 0.316 µM, first compound 0.0316 µM
[17] = second compound 0.316 µM, first compound 0.1 µM
[18] = second compound 1 µM, first compound 0.000316 µM
[19] = second compound 1 µM, first compound 0.001 µM
[20] = second compound 1 µM, first compound 0.00316 µM
[21] = second compound 1 µM, first compound 0.01 µM
[22] = second compound 1 µM, first compound 0.0316 µM
[23] = second compound 1 µM, first compound 0.1 µM
[24] = second compound 3.16 µM, first compound 0.000316 µM
[25] = second compound 3.16 µM, first compound 0.001 µM
[26] = second compound 3.16 µM, first compound 0.00316 µM
[27] = second compound 3.16 µM, first compound 0.01 µM
[28] = second compound 3.16 µM, first compound 0.0316 µM
[29] = second compound 3.16 µM, first compound 0.1 µM
[30] = second compound 10 µM, first compound 0.000316 µM
[31] = second compound 10 µM, first compound 0.001 µM
[32] = second compound 10 µM, first compound 0.00316 µM
[33] = second compound 10 µM, first compound 0.01 µM
[34] = second compound 10 µM, first compound 0.0316 µM
[35] = second compound 10 µM, first compound 0.1 µM
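Further: spheroids exposed to agents for 7 days starting day 3 after seeding.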
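Wherever viability, T/C is given: percent of DMSO vehicle control viability with 100% = vehicle.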

## NC1CCC(NC2CC2c2ccccc2)CC1 (stereo not drawn) + Cc1c(S(C)(=O)=O)c(-c2cc(F)cc(N3CCN(c4ccc(NS(=O)(=O)c5ccc(NC(CCN6CCC(C(=O)OCCCP(=O)(O)O)CC6)CSc6ccccc6)c(S(=O)(=O)C(F)(F)F)c5)cc4)CC3)c2)c(-c2ccc(Cl)cc2)n1C(C)C
[1]
  IC50: > 0.1 µM
[2]
  IC50: > 0.1 µM
[3]
  IC50: > 0.1 µM
[4]
  IC50: > 0.1 µM
[5]
  IC50: > 0.1 µM
[6]
  viability, T/C: 101%
[7]
  viability, T/C: 115%
[8]
  viability, T/C: 100%
[9]
  viability, T/C: 93.1%
[10]
  viability, T/C: 113%
[11]
  viability, T/C: 102%
[12]
  viability, T/C: 99.4%
[13]
  viability, T/C: 114%
[14]
  viability, T/C: 104%
[15]
  viability, T/C: 103%
[16]
  viability, T/C: 105%
[17]
  viability, T/C: 113%
[18]
  viability, T/C: 96.6%
[19]
  viability, T/C: 107%
[20]
  viability, T/C: 117%
[21]
  viability, T/C: 89.7%
[22]
  viability, T/C: 97.8%
[23]
  viability, T/C: 104%
[24]
  viability, T/C: 95.2%
[25]
  viability, T/C: 108%
[26]
  viability, T/C: 109%
[27]
  viability, T/C: 90.8%
[28]
  viability, T/C: 89.9%
[29]
  viability, T/C: 104%
[30]
  viability, T/C: 88.3%
[31]
  viability, T/C: 96.4%
[32]
  viability, T/C: 87.1%
[33]
  viability, T/C: 88.2%
[34]
  viability, T/C: 85.1%
[35]
  viability, T/C: 86%

## Cn1ncnc1[C@H]1c2n[nH]c(=O)c3cc(F)cc(c23)N[C@@H]1c1ccc(F)cc1 + Cc1c(S(C)(=O)=O)c(-c2cc(F)cc(N3CCN(c4ccc(NS(=O)(=O)c5ccc(NC(CCN6CCC(C(=O)OCCCP(=O)(O)O)CC6)CSc6ccccc6)c(S(=O)(=O)C(F)(F)F)c5)cc4)CC3)c2)c(-c2ccc(Cl)cc2)n1C(C)C
[1]
  IC50: > 0.1 µM
[2]
  IC50: > 0.1 µM
[3]
  IC50: > 0.1 µM
[4]
  IC50: > 0.1 µM
[5]
  IC50: > 0.1 µM
[6]
  viability, T/C: 102%
[7]
  viability, T/C: 106%
[8]
  viability, T/C: 103%
[9]
  viability, T/C: 85.5%
[10]
  viability, T/C: 98%
[11]
  viability, T/C: 87.7%
[12]
  viability, T/C: 100%
[13]
  viability, T/C: 98.8%
[14]
  viability, T/C: 102%
[15]
  viability, T/C: 90.2%
[16]
  viability, T/C: 90.4%
[17]
  viability, T/C: 84.8%
[18]
  viability, T/C: 91%
[19]
  viability, T/C: 93.3%
[20]
  viability, T/C: 102%
[21]
  viability, T/C: 83%
[22]
  viability, T/C: 85.4%
[23]
  viability, T/C: 81.1%
[24]
  viability, T/C: 85%
[25]
  viability, T/C: 89.3%
[26]
  viability, T/C: 92.7%
[27]
  viability, T/C: 81.3%
[28]
  viability, T/C: 79.4%
[29]
  viability, T/C: 76.3%
[30]
  viability, T/C: 72.7%
[31]
  viability, T/C: 74%
[32]
  viability, T/C: 75%
[33]
  viability, T/C: 76.8%
[34]
  viability, T/C: 70.8%
[35]
  viability, T/C: 66.5%

## NC1CCC(NC2CC2c2ccccc2)CC1 (stereo not drawn)
Compound 0.000316 µM
  viability, T/C: 106% and 107% and 103%
Compound 0.001 µM
  viability, T/C: 119% and 117% and 92.5%
Compound 0.00316 µM
  viability, T/C: 112% and 106% and 107%
Compound 0.01 µM
  viability, T/C: 114% and 108% and 92.8%
Compound 0.0316 µM
  viability, T/C: 109% and 103% and 96%
Compound 0.1 µM
  viability, T/C: 112% and 106% and 95.2%
Curve of compound
  IC50: > 0.1 µM

## NC1CCC(NC2CC2c2ccccc2)CC1 (stereo not drawn) + CCN1C(C(=O)NC23CCC(C(=O)O)(CC2)CC3)C(c2cccc(Cl)c2F)C2(C(=O)Nc3cc(Cl)ccc32)C12CCCCC2
Curve of first compound, second compound 0.03 µM
  IC50: > 0.1 µM
Curve of first compound, second compound 0.0949 µM
  IC50: > 0.1 µM
Curve of first compound, second compound 0.3 µM
  IC50: > 0.1 µM
Curve of first compound, second compound 0.949 µM
  IC50: > 0.1 µM
Curve of first compound, second compound 3 µM
  IC50: > 0.1 µM
Second compound 0.03 µM, first compound 0.000316 µM
  viability, T/C: 95.4%
Second compound 0.03 µM, first compound 0.001 µM
  viability, T/C: 107%
Second compound 0.03 µM, first compound 0.00316 µM
  viability, T/C: 119%
Second compound 0.03 µM, first compound 0.01 µM
  viability, T/C: 95.5%
Second compound 0.03 µM, first compound 0.0316 µM
  viability, T/C: 102%
Second compound 0.03 µM, first compound 0.1 µM
  viability, T/C: 99.7%
Second compound 0.0949 µM, first compound 0.000316 µM
  viability, T/C: 105%
Second compound 0.0949 µM, first compound 0.001 µM
  viability, T/C: 111%
Second compound 0.0949 µM, first compound 0.00316 µM
  viability, T/C: 123%
Second compound 0.0949 µM, first compound 0.01 µM
  viability, T/C: 100%
Second compound 0.0949 µM, first compound 0.0316 µM
  viability, T/C: 98.8%
Second compound 0.0949 µM, first compound 0.1 µM
  viability, T/C: 107%
Second compound 0.3 µM, first compound 0.000316 µM
  viability, T/C: 97.6%
Second compound 0.3 µM, first compound 0.001 µM
  viability, T/C: 111%
Second compound 0.3 µM, first compound 0.00316 µM
  viability, T/C: 110%
Second compound 0.3 µM, first compound 0.01 µM
  viability, T/C: 98.4%
Second compound 0.3 µM, first compound 0.0316 µM
  viability, T/C: 110%
Second compound 0.3 µM, first compound 0.1 µM
  viability, T/C: 111%
Second compound 0.949 µM, first compound 0.000316 µM
  viability, T/C: 111%
Second compound 0.949 µM, first compound 0.001 µM
  viability, T/C: 124%
Second compound 0.949 µM, first compound 0.00316 µM
  viability, T/C: 121%
Second compound 0.949 µM, first compound 0.01 µM
  viability, T/C: 100%
Second compound 0.949 µM, first compound 0.0316 µM
  viability, T/C: 107%
Second compound 0.949 µM, first compound 0.1 µM
  viability, T/C: 114%
Second compound 3 µM, first compound 0.000316 µM
  viability, T/C: 96.8%
Second compound 3 µM, first compound 0.001 µM
  viability, T/C: 98.5%
Second compound 3 µM, first compound 0.00316 µM
  viability, T/C: 103%
Second compound 3 µM, first compound 0.01 µM
  viability, T/C: 98.6%
Second compound 3 µM, first compound 0.0316 µM
  viability, T/C: 94.1%
Second compound 3 µM, first compound 0.1 µM
  viability, T/C: 107%

## Cc1c(S(C)(=O)=O)c(-c2cc(F)cc(N3CCN(c4ccc(NS(=O)(=O)c5ccc(NC(CCN6CCC(C(=O)OCCCP(=O)(O)O)CC6)CSc6ccccc6)c(S(=O)(=O)C(F)(F)F)c5)cc4)CC3)c2)c(-c2ccc(Cl)cc2)n1C(C)C (stereo not drawn)
Compound 0.1 µM
  viability, T/C: 97.4% [middle of 14 runs]
Compound 0.316 µM
  viability, T/C: 97.4% [middle of 14 runs]
Compound 1 µM
  viability, T/C: 91% [middle of 14 runs]
Compound 3.16 µM
  viability, T/C: 87.2% [middle of 14 runs]
Compound 10 µM
  viability, T/C: 74.9% [middle of 14 runs]
Compound alone, run of 10/11/2022
  IC50: > 10 µM

## CNC(C)C(=O)NC1CN(S(=O)(=O)c2cccc(S(=O)(=O)N3CCC4CCC(C(=O)NC(c5ccccc5)c5ccccc5)N4C(=O)C(NC(=O)C(C)NC)C3)c2)CCC2CCC(C(=O)NC(c3ccccc3)c3ccccc3)N2C1=O (stereo not drawn) + Cc1c(S(C)(=O)=O)c(-c2cc(F)cc(N3CCN(c4ccc(NS(=O)(=O)c5ccc(NC(CCN6CCC(C(=O)OCCCP(=O)(O)O)CC6)CSc6ccccc6)c(S(=O)(=O)C(F)(F)F)c5)cc4)CC3)c2)c(-c2ccc(Cl)cc2)n1C(C)C
[1]
  IC50: > 1 µM
[2]
  IC50: > 1 µM
[3]
  IC50: > 1 µM
[4]
  IC50: > 1 µM
[5]
  IC50: > 1 µM
[8]
  viability, T/C: 102%
[9]
  viability, T/C: 111%
[10]
  viability, T/C: 110%
[11]
  viability, T/C: 88.2%
Second compound 0.1 µM, first compound 0.316 µM
  viability, T/C: 88%
Second compound 0.1 µM, first compound 1 µM
  viability, T/C: 86.3%
[14]
  viability, T/C: 97.9%
[15]
  viability, T/C: 105%
[16]
  viability, T/C: 108%
[17]
  viability, T/C: 85%
Second compound 0.316 µM, first compound 0.316 µM
  viability, T/C: 83%
Second compound 0.316 µM, first compound 1 µM
  viability, T/C: 79.8%
[20]
  viability, T/C: 97.5%
[21]
  viability, T/C: 103%
[22]
  viability, T/C: 104%
[23]
  viability, T/C: 87.1%
Second compound 1 µM, first compound 0.316 µM
  viability, T/C: 93.9%
Second compound 1 µM, first compound 1 µM
  viability, T/C: 80%
[26]
  viability, T/C: 91.2%
[27]
  viability, T/C: 99.2%
[28]
  viability, T/C: 102%
[29]
  viability, T/C: 71%
Second compound 3.16 µM, first compound 0.316 µM
  viability, T/C: 84%
Second compound 3.16 µM, first compound 1 µM
  viability, T/C: 69.7%
[32]
  viability, T/C: 75.5%
[33]
  viability, T/C: 80.4%
[34]
  viability, T/C: 90.6%
[35]
  viability, T/C: 72.8%
Second compound 10 µM, first compound 0.316 µM
  viability, T/C: 64.7%
Second compound 10 µM, first compound 1 µM
  viability, T/C: 66.1%
